Test results taken from patent US8242101B2, “Leukemia treatment method and composition” (University of South Florida, priority 2003, dated 2012).
“Also recorded” adds a separate entry of the source.

Assays:
Hsp-90 = Hsp-90 acetylation, ATP binding and chaperone activities; format: cell-based; conditions: earlier work of the inventors
[1] = tested on: FLT-3 and p-FLT-3 on MV cells; assay: Flow cytometry (FCM) assay of surface FLT-3 and p-FLT-3 on MV cells; format: cell-based, human; conditions: for surface expression of p-FLT-3: FCM
Procedure: (§1) Simultaneous measurement of surface FLT-3 kinase and Phospho (P Y591) FLT-3 kinase in Acute Leukemic cells using a flow cytometric assay.
(§2) Leukemic cells are harvested by spinning at 1000 rpm at 4 deg for 5 minutes. The cells are washed twice with cold PBS (1×). Equal numbers of cells are utilized for FLT-3 and p-FLT-3 analyses.
(§3) In the assay to detect surface FLT-3 expression, shown in FIG. 8, the cells 10 are incubated on ice for thirty minutes 20 in PBS (1×) 30 containing 3% FBS (blocking buffer) 40. Subsequently, the cells are washed twice with cold PBS (1×). Cells are then incubated with either 0.2 Tg of anti-FLT-3 antibody 50 (sc-19635, Santa Cruz Biotechnology, Calif.) or concentration-matched isotype, control antibody (IgG1, Caltag, Burlingame, Calif.) 60 diluted in the blocking buffer and kept on ice for one hour 70. Cells are then washed twice in PBS (1×) and incubated in FITC-conjugated secondary antibody (Molecular Probes, Eugene, Oreg.) 80 for additional thirty minutes on ice 90. The cells are then rinsed twice with PBS (1×) and resuspended in 400 TL PBS (1×) 100. The fluorescence is measured by FACScan Cytometer (San Jose, Calif.).
To determine the p-FLT-3 expression, leukemia cells are fixed and permeabilized. Referring now to the flowchart in FIG. 9, cells 10 are fixed in 1% formaldehyde 20 at 37 degrees for ten minutes 30, followed by incubation on ice for ten minutes. Cells are then spun down and permeabilized by resuspending them in ice cold 90% methanol 40 for thirty minutes. Following this, cells are washed twice in the blocking buffer (PBS (1×) containing 0.5% BSA) 50 and then incubated in the blocking buffer for an additional ten minutes at room temperature (RT) 60. Next, to the cells, either 0.4 Tg of monoclonal antibody to p-FLT-3 (Cell Signaling, Beverley, Mass.) 70 or isotype control antibody (IgG2b, Caltag, Burlingame, Calif.) 80 is added and cells are then incubated at RT for thirty minutes 90. […] After thirty minutes of incubation 110, cells are washed twice with PBS (1×) and resuspended in 400 TI of PBS (1×) 120 and analyzed by FACScan 130.

histone H3 and H4, p21 = assay: Histone acetylation and p21 levels in AML cells; format: cell-based, human; conditions: LAQ824 10 to 100 nM
MV4-11 (MV) cells = assay: Cell cycle status and apoptosis of MV4-11 cells; format: cell-based, human
[2] = tested on: FLT-3 and p-FLT-3 in RS cells; assay: FLT-3 and p-FLT-3 levels in RS cells by Western and FCM analyses; format: cell-based, human
Procedure: as §1, §2, §3
To determine the p-FLT-3 expression, leukemia cells are fixed and permeabilized. […] After thirty minutes of incubation 110, cells are washed twice with PBS (1×) and resuspended in 400 TI of PBS (1×) 120 and analyzed by FACScan 130.

[3] = tested on: p-FLT-3, p-AKT and p-ERK1/2; assay: Western analyses of FLT-3, AKT, ERK1/2 and their phospho forms in MV cells; format: cell-based, human

| Structure (SMILES) | acetylation of Hsp-90, its ATP binding and chaperone activities (Hsp-90) | surface expression of p-FLT-3 [1] | FLT-3 and p-FLT-3 levels ([1]; Western and FCM analyses) | acetylation of histone H3 and H4 (histone H3 and H4, p21) | p21 levels (histone H3 and H4, p21) | apoptosis (MV4-11 (MV) cells; MV4-11 cells, single agent, FIG. 2 and FIG. 3) | FLT-3 and p-FLT-3 levels [2] | levels of p-FLT-3, p-AKT and p-ERK1/2 ([3]; LAQ824 20 to 100 nM) | FLT-3, P-AKT and P-ERK levels ([3]; MV4-11 cells, immunoblots, FIG. 3) | apoptosis, MV compared with RS cells (MV4-11 (MV) cells; 20 to 200 nM PKC412, dose-dependent) | cell cycle G1 phase accumulation (MV4-11 (MV) cells; exposure to 20 to 200 nM PKC412) | p-FLT-3, p-AKT and p-ERK1/2 levels ([3]; Western analyses, 20 to 200 nM PKC412) |
| --- | --- | --- | --- | --- | --- | --- | --- | --- | --- | --- | --- | --- |
| O=C(/C=C/c1ccc(CN(CCO)CCc2c[nH]c3ccccc23)cc1)NO [LAQ824] | induces acetylation of Hsp-90 and inhibition of its ATP binding and chaperone activities | attenuates cell surface p-FLY-3 expression | attenuated both FLT-3 and p-FLT-3 levels in a dose-dependent manner | induced the acetylation of histone H3 and H4 | increases p21; also recorded: increased p21 levels | induces apoptosis of MV4-11 cells; also recorded: inducing apoptosis of MV4-11 cells | attenuated both FLT-3 and p-FLT-3 levels in a dose-dependent manner | down regulated the levels of p-FLT-3, p-AKT and p-ERK1/2 | attenuates FLT-3, P-AKT, and P-ERK |  |  |  |
| CO[C@@H]1[C@H](N(C)C(=O)c2ccccc2)C[C@H]2O[C@]1(C)n1c3ccccc3c3c4c(c5c6ccccc6n2c5c31)C(=O)NC4 [PKC412] |  | inhibited the surface expression of p-FLT-3 |  |  |  |  |  |  |  | significantly more apoptosis of MV than RS cells | induced cell cycle G1 phase accumulation | marked attenuation of p-FLT-3, p-AKT and p-ERK1/2 |
